Data published in patent publication US9085576B2 (AMGEN INC., priority 2013, dated 2015).
pIC50: −log10 of the molar value.

Columns and labels:
[1] = target: BACE (Homo sapiens (Human), UniProt P56817); test: In vitro BACE cell-based assay (Aβ40 in conditioned medium, sandwich ELISA)
[2] = target: Cathepsin D (Cat D) (Homo sapiens (Human), UniProt P07339); test: In vitro enzymatic Cathepsin D (Cat D) FRET assay; assay type: biochemical; conditions: read-out: CatD IC50
[3] = target: Beta Secretase enzyme (BACE) (Homo sapiens (Human), UniProt P56817); test: In vitro enzymatic BACE FRET assay; assay type: biochemical; conditions: read-out: BACE1 Enzyme assay IC50
Sequence of Beta Secretase enzyme (BACE) (P56817 46-501): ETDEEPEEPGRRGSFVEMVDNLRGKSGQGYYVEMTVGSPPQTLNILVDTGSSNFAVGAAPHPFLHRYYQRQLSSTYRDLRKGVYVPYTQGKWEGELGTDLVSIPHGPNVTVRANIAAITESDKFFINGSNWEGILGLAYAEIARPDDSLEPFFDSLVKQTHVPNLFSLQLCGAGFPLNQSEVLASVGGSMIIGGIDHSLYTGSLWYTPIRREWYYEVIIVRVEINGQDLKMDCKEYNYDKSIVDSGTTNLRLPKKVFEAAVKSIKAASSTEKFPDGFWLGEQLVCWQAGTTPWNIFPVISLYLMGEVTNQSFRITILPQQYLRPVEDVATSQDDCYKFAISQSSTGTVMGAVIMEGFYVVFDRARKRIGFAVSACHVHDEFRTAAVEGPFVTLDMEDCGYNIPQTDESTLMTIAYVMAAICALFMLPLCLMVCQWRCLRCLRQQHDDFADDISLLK

Sequence of Cathepsin D (Cat D) (P07339 65-412, species assumed): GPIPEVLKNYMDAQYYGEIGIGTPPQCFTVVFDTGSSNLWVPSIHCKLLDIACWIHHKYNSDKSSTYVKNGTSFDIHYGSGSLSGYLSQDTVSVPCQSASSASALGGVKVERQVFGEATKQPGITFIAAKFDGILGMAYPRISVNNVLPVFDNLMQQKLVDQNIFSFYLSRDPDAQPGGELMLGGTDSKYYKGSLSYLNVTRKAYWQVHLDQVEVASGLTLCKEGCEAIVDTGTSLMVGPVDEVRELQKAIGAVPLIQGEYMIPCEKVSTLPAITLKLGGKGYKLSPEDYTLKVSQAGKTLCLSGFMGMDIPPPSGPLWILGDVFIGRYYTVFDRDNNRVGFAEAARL
Sequence of BACE (P56817 46-501, species assumed): as the sequence (P56817 46-501) above

| SMILES | IC50 [1] [µM] | pIC50 [2] | pIC50 [3] |
| --- | --- | --- | --- |
| COc1cnc(C(=O)Nc2ccc(Cl)c([C@@]3(CF)N=C(N)O[C@@H]4C[C@@H]43)c2)c(Cl)c1 [Example 284, N-(3-((1R,5S,6R)-3-amino-5-(fluoromethyl)-2-oxa-4-azabicyclo[4.1.0]hept-3-en-5-yl)-4-chlorophenyl)-3-chloro-5-methoxypicolinamide] | 0.0149 | 3.12 | 6.91 |
| CC#CCOc1cnc(C(=O)Nc2ccc(Cl)c([C@@]3(CF)N=C(N)O[C@@H]4C[C@@H]43)c2)cn1 [Example 285, N-(3-((1R,5S,6R)-3-amino-5-(fluoromethyl)-2-oxa-4-azabicyclo[4.1.0]hept-3-en-5-yl)-4-chlorophenyl)-5-(but-2-yn-1-yloxy)pyrazine-2-carboxamide] | 0.0006 | 2.74 | 8.66 |
| COc1cnc(C(=O)Nc2cc(C)c(F)c([C@@]3(C(F)F)N=C(N)O[C@@H]4C[C@@H]43)c2)c(C)n1 [Example 300, N-(3-((1R,5S,6R)-3-amino-5-(difluoromethyl)-2-oxa-4-azabicyclo[4.1.0]hept-3-en-5-yl)-4-fluoro-5-methylphenyl)-5-methoxy-3-methylpyrazine-2-carboxamide] | 0.0405 | 3.35 | 6.85 |
| COc1cnc(C(=O)Nc2ccc(Cl)c([C@@]3(CF)N=C(N)O[C@@H]4C[C@@H]43)c2)c(C)n1 [Example 301, N-(3-((1R,5S,6R)-3-amino-5-(fluoromethyl)-2-oxa-4-azabicyclo[4.1.0]hept-3-en-5-yl)-4-chlorophenyl)-5-methoxy-3-methylpyrazine-2-carboxamide] | 0.031 | 3.15 | 6.45 |
| COc1cnc(C(=O)Nc2cc(C)c(F)c([C@@]3(C(F)F)N=C(N)O[C@@H]4C[C@@H]43)c2)c(C)c1 [Example 305, N-(3-((1R,5S,6R)-3-amino-5-(difluoromethyl)-2-oxa-4-azabicyclo[4.1.0]hept-3-en-5-yl)-4-fluoro-5-methylphenyl)-5-methoxy-3-methylpicolinamide] | 0.0696 | 3.54 | 6.93 |
| Cc1cc(C#N)cnc1C(=O)Nc1cc(F)c(C)c([C@@]2(C(F)F)N=C(N)O[C@@H]3C[C@@H]32)c1 [Example 310, N-(3-((1R,5S,6R)-3-amino-5-(difluoromethyl)-2-oxa-4-azabicyclo[4.1.0]hept-3-en-5-yl)-5-fluoro-4-methylphenyl)-5-cyano-3-methylpicolinamide] | > 15.6 | 2.75 | < 4.40 |
| Cc1cc(C#N)cnc1C(=O)Nc1cc(F)c(C)c([C@]2(C(F)F)N=C(N)O[C@H]3C[C@H]32)c1 [Example 311, N-(3-((1S,5R,6S)-3-amino-5-(difluoromethyl)-2-oxa-4-azabicyclo[4.1.0]hept-3-en-5-yl)-5-fluoro-4-methylphenyl)-5-cyano-3-methylpicolinamide] | 0.0174 | 3.53 | 7.33 |
| Cc1nc(OCC(F)(F)F)cnc1C(=O)Nc1cc(F)c(Cl)c([C@@]2(CF)N=C(N)O[C@@H]3C[C@@H]32)c1 [Example 315, N-(3-((1R,5S,6R)-3-amino-5-(fluoromethyl)-2-oxa-4-azabicyclo[4.1.0]hept-3-en-5-yl)-4-chloro-5-fluorophenyl)-3-methyl-5-(2,2,2-trifluoroethoxy)pyrazine-2-carboxamide] | 0.0927 | 3.25 | 7.03 |
| Cc1nc(OCC(F)(F)F)cnc1C(=O)Nc1cc(F)c(Cl)c([C@]2(CF)N=C(N)O[C@H]3C[C@H]32)c1 [Example 316, N-(3-((1S,5R,6S)-3-amino-5-(fluoromethyl)-2-oxa-4-azabicyclo[4.1.0]hept-3-en-5-yl)-4-chloro-5-fluorophenyl)-3-methyl-5-(2,2,2-trifluoroethoxy)pyrazine-2-carboxamide] | > 15.6 | 2.97 | < 4.40 |
| C#CCOc1cnc(C(=O)Nc2cc(F)c(Cl)c([C@@]3(CF)N=C(N)O[C@@H]4C[C@@H]43)c2)cn1 [Example 317, N-(3-((1R,5S,6R)-3-amino-5-(fluoromethyl)-2-oxa-4-azabicyclo[4.1.0]hept-3-en-5-yl)-4-chloro-5-fluorophenyl)-5-(prop-2-yn-1-yloxy)pyrazine-2-carboxamide] | 0.0014 | 4.39 | 8.55 |
| C#CCOc1cnc(C(=O)Nc2cc(F)c(Cl)c([C@]3(CF)N=C(N)O[C@H]4C[C@H]43)c2)cn1 [Example 318] | 1.49 | 3.43 | 5.39 |

Results, then the molecule that gave them:

| IC50 [1] [µM] | pIC50 [2] | pIC50 [3] | SMILES |
| --- | --- | --- | --- |
| 1.12 | 3.14 | 5.80 | NC1=N[C@@](c2cc(NC(=O)c3cccc(Cl)n3)ccc2F)(C(F)F)[C@H]2C[C@H]2O1 [Example 286, N-(3-((1R,5S,6R)-3-amino-5-(difluoromethyl)-2-oxa-4-azabicyclo[4.1.0]hept-3-en-5-yl)-4-fluorophenyl)-6-chloropicolinamide] |
| 2.11 | 2.79 | 5.71 | NC1=N[C@@](c2cc(NC(=O)c3cc(Cl)ccn3)ccc2F)(C(F)F)[C@H]2C[C@H]2O1 [Example 287, N-(3-((1R,5S,6R)-3-amino-5-(difluoromethyl)-2-oxa-4-azabicyclo[4.1.0]hept-3-en-5-yl)-4-fluorophenyl)-4-chloropicolinamide] |
| 2.22 | 2.90 | 5.48 | CC(C)c1cccnc1C(=O)Nc1ccc(F)c([C@@]2(C(F)F)N=C(N)O[C@@H]3C[C@@H]32)c1 [Example 288, N-(3-((1R,5S,6R)-3-amino-5-(difluoromethyl)-2-oxa-4-azabicyclo[4.1.0]hept-3-en-5-yl)-4-fluorophenyl)-3-isopropylpicolinamide] |
| 0.116 | 3.15 | 6.52 | CC(C)c1cc(Cl)cnc1C(=O)Nc1ccc(F)c([C@@]2(C(F)F)N=C(N)O[C@@H]3C[C@@H]32)c1 [Example 289, N-(3-((1R,5S,6R)-3-amino-5-(difluoromethyl)-2-oxa-4-azabicyclo[4.1.0]hept-3-en-5-yl)-4-fluorophenyl)-5-chloro-3-isopropylpicolinamide] |
| 0.0222 | 3.60 | 7.85 | NC1=N[C@@](c2cc(NC(=O)c3ncc(Br)cc3C(F)F)ccc2F)(C(F)F)[C@H]2C[C@H]2O1 [Example 290, N-(3-((1R,5S,6R)-3-amino-5-(difluoromethyl)-2-oxa-4-azabicyclo[4.1.0]hept-3-en-5-yl)-4-fluorophenyl)-5-bromo-3-(difluoromethyl) picolinamide] |
| 1.87 | 3.83 | 5.94 | NC1=N[C@@](c2cc(NC(=O)c3ccc(-c4ccccc4)cn3)ccc2F)(C(F)F)[C@H]2C[C@H]2O1 [Example 291, N-(3-((1R,5S,6R)-3-amino-5-(difluoromethyl)-2-oxa-4-azabicyclo[4.1.0]hept-3-en-5-yl)-4-fluorophenyl)-5-phenylpicolinamide] |
| 0.279 | 3.16 | 6.52 | NC1=N[C@@](c2cc(NC(=O)c3ccccn3)ccc2F)(C(F)F)[C@H]2C[C@H]2O1 [Example 292, N-(3-((1R,5S,6R)-3-amino-5-(difluoromethyl)-2-oxa-4-azabicyclo[4.1.0]hept-3-en-5-yl)-4-fluorophenyl) picolinamide] |
| 0.601 | 2.78 | 6.57 | Cc1cccnc1C(=O)Nc1ccc(F)c([C@@]2(C(F)F)N=C(N)O[C@@H]3C[C@@H]32)c1 [Example 293] |
| 0.0612 | 3.16 | 6.50 | COc1cnc(C(=O)Nc2ccc(C)c([C@@]3(C(F)F)N=C(N)O[C@@H]4C[C@@H]43)c2)cn1 [Example 294, N-(3-((1R,5S,6R)-3-amino-5-(difluoromethyl)-2-oxa-4-azabicyclo[4.1.0]hept-3-en-5-yl)-4-methylphenyl)-5-methoxypyrazine-2-carboxamide] |
| 0.0129 | 3.33 | 7.04 | Cc1ccc(NC(=O)c2ccc(Cl)cn2)cc1[C@@]1(C(F)F)N=C(N)O[C@@H]2C[C@@H]21 [Example 295, N-(3-((1R,5S,6R)-3-amino-5-(difluoromethyl)-2-oxa-4-azabicyclo[4.1.0]hept-3-en-5-yl)-4-methylphenyl)-5-chloropicolinamide] |
| 3.51 | 2.73 | 5.38 | NC1=N[C@](c2cc(NC(=O)c3ccc(Br)cn3)ccc2F)(C(F)F)[C@@H]2C[C@@H]2O1 [Example 296, N-(3-((1S,5R,6S)-3-amino-5-(difluoromethyl)-2-oxa-4-azabicyclo[4.1.0]hept-3-en-5-yl)-4-fluorophenyl)-5-bromopicolinamide] |
| 0.139 | < 3.40 | 6.38 | COc1cc(F)cnc1C(=O)Nc1ccc(F)c([C@@]2(C(F)F)N=C(N)O[C@@H]3C[C@@H]32)c1 [Example 307, N-(3-((1R,5S,6R)-3-amino-5-(difluoromethyl)-2-oxa-4-azabicyclo[4.1.0]hept-3-en-5-yl)-4-fluorophenyl)-5-fluoro-3-methoxypicolinamide] |
| 0.0321 | 3.73 | 7.75 | NC1=N[C@@](c2cc(NC(=O)c3ncc(Cl)cc3CF)ccc2F)(C(F)F)[C@H]2C[C@H]2O1 [Example 308, N-(3-((1R,5S,6R)-3-amino-5-(difluoromethyl)-2-oxa-4-azabicyclo[4.1.0]hept-3-en-5-yl)-4-fluorophenyl)-5-chloro-3-(fluoromethyl) picolinamide] |
| 0.0891 | 3.38 | 7.33 | CC#Cc1ccc(C(=O)Nc2ccc(F)c([C@@]3(C(F)F)N=C(N)O[C@@H]4C[C@@H]43)c2)nc1 [Example 314, N-(3-((1R,5S,6R)-3-amino-5-(difluoromethyl)-2-oxa-4-azabicyclo[4.1.0]hept-3-en-5-yl)-4-fluorophenyl)-5-(prop-1-yn-1-yl)picolinamide] |
